Measured values published in patent publication US20240317748A1, “CARBONYL SUBSTITUTED DIAZASPIRO COMPOUNDS AND ITS USE” (BIONOVA PHARMACEUTICALS (SHANGHAI) LIMITED, priority 2021, published 2024).

Columns and labels:
[1] = Liver microsome stability study; assay type: in vitro ADME; settings: human liver microsomes 0.5 mg/mL, 1 μM compound, NADPH, 37° C.; read-out: Human liver microsome T1/2
Description: Studies were carried out in liver microsomes (Corning, 0.5 mg/mL). Stock solutions were prepared at 10 mM in DMSO for the test compounds. Aliquots of the stock solutions were diluted to 0.5 mM with acetonitrile, and then further diluted upon the addition of liver microsomes/buffer to 1.5 μM. An aliquot of 30 μL of 1.5 μM solutions was mixed with 15 μL of 6 mM NADPH and the final concentration of NADPH was 2 mM, which had been pre-warmed to 37° C. Test compounds and Ketanserin final concentrations were 1 μM. The plates were kept in a 37° C. water bath for the duration of the experiment. At each time point (0, 5, 15, 30, 45 minutes), 135 μL of acetonitrile was added into corresponding wells. After the final time point was quenched by acetonitrile, the assay plates were shaken at the vibrator (IKA, MTS 2/4) for 10 min (600 rpm/min) and then centrifuged at 5,594 g for 15 min (Thermo Multifuge×3R). Aliquots of the supernatant were taken, diluted 1:1 into distilled water, and analyzed by LC-MS/MS. The peak area response ratio to internal standard (PARR) of the compounds at 5, 15, 30, 45 minutes was compared to the PARR at time 0 to determine the percent of test compound remaining at each time point. Half-lives were calculated using Excel software, fitting to a single-phase exponential decay equation.

HL-60 cells = experiment: Cell proliferation assay (CellTiter-Glo), HL-60 control line; assay type: cell-based, human; settings: Homo sapiens, 96 h, 4 days incubation; for IC50: HL-60 control line (MLL wildtype), read-out: Cell antiproliferation assay HL-60 IC50; for inhibition at 10 µM: HL-60 control line, read-out: HL-60 (Pct of inhibition at 10 μM)
Description: (§1) The antiproliferative activity of test compounds was assessed in human leukemia cell lines. The cell line MV4-11, MOLM13 and OCI-AML3, which expresses the MLL fusion protein MLL-AF4, MLL-AF9 and carry the NPM1c gene mutation, respectively, were tested. HL-60 was used as a control cell line containing two MLL wildtype alleles in order to exclude compounds that display general cytotoxic effect. MV4-11 cells were cultured in IMDM supplemented with 10% FBS, MOLM13 and OCI-AML3 cells were cultured in RPMI1640 supplemented with 20% FBS, and HL-60 cells were cultured in IMDM supplemented with 20% FBS. Corresponding cells (MV4-11, MOLM13, OCI-AML3 or HL-60 cell line) were seeded in 100 uL medium per well in 96-well plate (white wall with clear bottom, tissue culture treated, Corning, Cat. No. CLS3903; Lot.No. 30419025). Plates were placed in the CO2 incubator overnight. Compounds solution (2 mM starting, 4-fold serial dilution) were prepared and added to the wells containing 100 μL of the culture medium with HPD300 according to the plate map and centrifuge at 1000 rpm for 1 minutes (200-fold dilution totally). MV4-11, MOLM13, OCI-AML3 and HL-60 cells were incubated with the compounds for 4, 12, 5 and 4 days, respectively, under 5% CO2 at 37° C., respectively. 100 μL of CellTiter-Glo reagent (Promega, Cat. No. G7573, Lot. No. 0000416710) was added to the assay plate by Multidrop Combi instrument, contents were mixed for 10 minutes on an orbital shaker to induce cell lysis. After incubation at room temperature for 10 mins, clear bottom with white back seal was pasted and luminescence with Envision was read.

Menin-MLL1 = target: T1, Menin-MLL1 (Homo sapiens, UniProt O00255); experiment: Menin-MLL1 inhibition assay (fluorescence polarization, Menin protein + FAM-MLL peptide); assay type: binding; settings: Menin (2-610) isoform 2, FAM-labelled MLL peptide, mP readout; read-out: Biochemical assay Menin-MLL1 IC50
T1 construct: Menin (2-610) isform2; purchased ChemPartner 2020111101
T1 sequence (O00255 2-610): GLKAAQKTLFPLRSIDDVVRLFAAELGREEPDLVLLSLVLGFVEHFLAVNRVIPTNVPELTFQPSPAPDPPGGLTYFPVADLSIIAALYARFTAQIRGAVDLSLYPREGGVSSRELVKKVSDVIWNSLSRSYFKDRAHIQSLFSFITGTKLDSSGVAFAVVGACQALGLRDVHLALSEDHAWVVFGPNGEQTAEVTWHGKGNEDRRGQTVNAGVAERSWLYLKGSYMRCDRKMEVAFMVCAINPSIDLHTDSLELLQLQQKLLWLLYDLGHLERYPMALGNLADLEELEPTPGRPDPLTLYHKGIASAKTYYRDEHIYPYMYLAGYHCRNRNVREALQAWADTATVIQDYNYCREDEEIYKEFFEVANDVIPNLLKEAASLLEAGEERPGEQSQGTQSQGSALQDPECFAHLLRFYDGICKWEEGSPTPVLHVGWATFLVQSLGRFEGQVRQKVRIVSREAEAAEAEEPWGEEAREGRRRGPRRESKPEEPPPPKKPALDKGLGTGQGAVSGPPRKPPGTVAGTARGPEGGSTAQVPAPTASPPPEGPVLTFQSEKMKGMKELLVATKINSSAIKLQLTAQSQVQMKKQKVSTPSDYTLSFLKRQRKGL

MV-4-11 cells = experiment: Cell proliferation assay (CellTiter-Glo), MV-4-11; assay type: cell-based, human; settings: Homo sapiens, MV4-11, 96 h; MV-4-11 (MLL-AF4), 4 days incubation; read-out: Cell antiproliferation assay MV-4-11 IC50
Method in brief: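 Antiproliferative activity by CellTiter-Glo luminescence; MV4-11 (MLL-AF4) in IMDM/10% FBS, 4 days; MOLM13 (MLL-AF9) in RPMI1640/20% FBS, 12 days; OCI-AML3 (NPM1c) in RPMI1640/20% FBS, 5 days; HL-60 (MLL wild-type control) in IMDM/20% FBS, 4 days. Compounds 4-fold serial from 2 mM stock, 200-fold final dilution; 37 °C, 5% CO2.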

MOLM13 cells = experiment: Cell proliferation assay (CellTiter-Glo), MOLM13; assay type: cell-based, human; settings: Homo sapiens, MOLM-13, 288 h; MOLM13 (MLL-AF9), 12 days incubation; read-out: Cell antiproliferation assay MOLM13 IC50
Description: as §1

hERG potassium channel = target: T2, hERG potassium channel (Homo sapiens, UniProt Q12809); experiment: hERG inhibition study (Qpatch, CHO-hERG cells); assay type: cell-based; settings: highest test concentration 40 μM
T2 construct: expressed in transfected cells; host or cells: CHO-hERG cells
Description: The inhibition effects of the test compounds on hERG were carried out in CHO-hERG cells (cell density: 21.5×10˜6/mL). 10 μL compound mother liquor was added to 20 μL DMSO solution, and then continuously diluted to 6 concentrations by 3-fold. The compound solution (4 uL) of six different concentrations were added to the extracellular solution (996 uL) and diluted to the final concentration to be tested (250-fold dilution totally). The highest test concentration was 40.00 μM, followed by […], 13.3, 4.4, 1.48, 0.49 and 0.16 μM. […] The high impedance sealing of single cell and the formation of whole cell model were all completed automatically by Qpatch instrument.

OCI-AML3 cells = experiment: Cell proliferation assay (CellTiter-Glo), OCI-AML3; assay type: cell-based, human; settings: Homo sapiens, OCI-AML-3, 120 h; OCI-AML3 (NPM1c mutation), 5 days incubation; read-out: Cell antiproliferation assay OCI-AML3 IC50
Description: as §1

T2 sequence (Q12809 whole entry): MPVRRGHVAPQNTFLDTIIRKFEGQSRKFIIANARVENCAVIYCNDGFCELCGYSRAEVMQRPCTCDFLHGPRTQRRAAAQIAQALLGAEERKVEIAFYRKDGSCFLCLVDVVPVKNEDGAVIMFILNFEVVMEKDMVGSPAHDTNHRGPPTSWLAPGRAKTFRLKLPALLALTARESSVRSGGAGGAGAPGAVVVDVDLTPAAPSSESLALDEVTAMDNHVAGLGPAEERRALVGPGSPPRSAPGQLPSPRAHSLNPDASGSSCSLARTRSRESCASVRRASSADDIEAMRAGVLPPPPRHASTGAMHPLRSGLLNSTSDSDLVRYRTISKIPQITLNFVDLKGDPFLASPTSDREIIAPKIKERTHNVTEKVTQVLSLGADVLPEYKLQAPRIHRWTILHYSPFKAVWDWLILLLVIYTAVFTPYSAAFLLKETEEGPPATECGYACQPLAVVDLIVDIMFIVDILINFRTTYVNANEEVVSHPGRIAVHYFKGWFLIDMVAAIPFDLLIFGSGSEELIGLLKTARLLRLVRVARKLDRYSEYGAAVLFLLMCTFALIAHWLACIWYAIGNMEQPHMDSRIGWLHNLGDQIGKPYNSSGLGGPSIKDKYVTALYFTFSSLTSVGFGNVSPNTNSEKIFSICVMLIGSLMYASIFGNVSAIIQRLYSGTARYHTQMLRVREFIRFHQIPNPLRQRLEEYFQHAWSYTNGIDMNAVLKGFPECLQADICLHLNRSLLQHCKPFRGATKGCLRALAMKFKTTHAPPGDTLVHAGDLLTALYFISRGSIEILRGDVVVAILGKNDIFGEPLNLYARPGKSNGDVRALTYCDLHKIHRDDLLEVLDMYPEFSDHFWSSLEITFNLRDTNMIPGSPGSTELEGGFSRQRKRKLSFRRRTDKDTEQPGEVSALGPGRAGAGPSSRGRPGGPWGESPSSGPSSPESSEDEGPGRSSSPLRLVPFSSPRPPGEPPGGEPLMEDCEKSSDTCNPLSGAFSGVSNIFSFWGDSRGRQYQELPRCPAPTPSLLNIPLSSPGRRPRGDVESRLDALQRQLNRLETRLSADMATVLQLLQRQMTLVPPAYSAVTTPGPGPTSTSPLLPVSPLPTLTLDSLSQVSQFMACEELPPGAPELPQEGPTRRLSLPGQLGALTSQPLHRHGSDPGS

Structure (SMILES)	half-life at 1 μM [1]	IC50 (HL-60 cells)	IC50 (Menin-MLL1)	IC50 (MV-4-11 cells)	IC50 (MOLM13 cells)	IC50 (OCI-AML3 cells)	inhibition at 10 µM (HL-60 cells)	IC50 (hERG potassium channel)
CCN(C(=O)c1cc(F)ccc1Oc1nncnc1N1CC2(CCN(C(=O)[C@H]3NCCC3(C)C)CC2)C1)C(C)C [Example 65]	1.12 h	> 10000 nM	3.1 nM	15.1 nM	57 nM		-3.7%	
CCN(C(=O)c1cc(F)ccc1Oc1cncnc1N1CC2(CCN(C(=O)[C@@H]3C[C@@H](F)CN3)CC2)C1)C(C)C [Example 2, N-ethyl-5-fluoro-2-[(4-{7-[(2S,4R)-4-fluoropyrrolidine-2-carbonyl]-2,7-diazaspiro[3.5]nonan-2-yl}pyrimidin-5-yl)oxy]-N-(propan-2-yl)benzamide]		> 10000 nM	4.3 nM	20.3 nM	62.4 nM	102 nM	-30.1%	> 40000 nM
CCN(C(=O)c1cc(F)ccc1Oc1nncnc1N1CC2(CCN(C(=O)[C@H]3NC[C@H]4[C@@H]3C4(C)C)CC2)C1)C(C)C (stereo in doubt) [Example 68]		> 10000 nM	4.1 nM	13.8 nM	46.1 nM	68.3 nM	14.1%	> 40000 nM
CCN(C(=O)c1cc(F)ccc1Oc1nncnc1N1CC2(CCN(C(=O)[C@@H]3C[C@@H](F)CN3)CC2)C1)C(C)C [Example 39, N-ethyl-5-fluoro-2-[(5-{7-[(2S,4R)-4-fluoropyrrolidine-2-carbonyl]-2,7-diazaspiro [3.5]nonan-2-yl}-1,2,4-triazin-6-yl)oxy]-N-(propan-2-yl) benzamide]	1.57 h	> 10000 nM	4.2 nM	43 nM			-24.9%	
CCN(C(=O)c1cc(F)ccc1Oc1nncnc1N1CC2(CCN(C(=O)[C@@H]3C[C@@H](C)CN3)CC2)C1)C(C)C [Example 60]	1.98 h	> 10000 nM	4.5 nM	40.1 nM			-8.4%	> 40000 nM
CCN(C(=O)c1cc(F)ccc1Oc1cncnc1N1CC2(CN(C(=O)[C@@H]3C[C@@H](F)CN3)C2)C1)C(C)C [Example 38]	1 h		3.3 nM	69 nM				
CCN(C(=O)c1cc(F)ccc1Oc1nncnc1N1CC2(CCN(C(=O)[C@H]3NCC[C@@H]3C)CC2)C1)C(C)C [Example 57]	1.75 h	> 10000 nM	5.3 nM	13 nM	57.8 nM	144 nM	-16.4%	> 40000 nM
O=C([C@@H]1C[C@@H](F)CN1)N1CCC2(CC1)CN(c1ncnnc1Oc1ccc(F)cc1-c1cncnc1C1CC1)C2 [Example 62]	1.43 h	> 10000 nM	3.4 nM	39.5 nM			-9.1%	
CCN(C(=O)c1cc(F)ccc1Oc1nncnc1N1CC2(CCN(C(=O)[C@H]3NC[C@@H]4C[C@@H]43)CC2)C1)C(C)C [Example 55]	2.65 h	> 10000 nM	2.3 nM	14.2 nM	61.9 nM	186 nM	-5%	> 40000 nM
CCN(C(=O)c1cc(F)ccc1Oc1nncnc1N1CC2(CCN(C(=O)[C@H]3NCC[C@H]3C)CC2)C1)C(C)C [Example 63]	2.08 h		3.5 nM	43.4 nM				
CCN(C(=O)c1cc(F)ccc1Oc1cncnc1N1CC2(CCN(C(=O)[C@]3(C)CCCN3)CC2)C1)C(C)C [Example 22]	1.53 h		4.9 nM	134 nM				

Further lines, with some results ahead:

half-life at 1 μM [1]	IC50 (HL-60 cells)	IC50 (Menin-MLL1)	IC50 (MV-4-11 cells)	IC50 (MOLM13 cells)	IC50 (OCI-AML3 cells)	Structure (SMILES)	inhibition at 10 µM (HL-60 cells)	IC50 (hERG potassium channel)
2.63 h		5.5 nM	56.3 nM			C[C@H]1CN[C@H](C(=O)N2CCC3(CC2)CN(c2ncnnc2Oc2ccc(F)cc2-c2cncnc2C2CC2)C3)C1 [Example 72]		
1.13 h	> 10000 nM	5.1 nM	20 nM	60.9 nM	67.1 nM	CCN(C(=O)c1cc(F)ccc1Oc1nncnc1N1CC2(CCN(C(=O)[C@H]3NCC[C@@H]3OC)CC2)C1)C(C)C [Example 84]	15.1%	
2.57 h		4.4 nM	56.4 nM			C[C@@H]1CCN[C@@H]1C(=O)N1CCC2(CC1)CN(c1ncnnc1Oc1ccc(F)cc1-c1cncnc1C1CC1)C2 [Example 69]		
1.35 h	> 10000 nM	3.4 nM	17.3 nM			C[C@H]1CCN[C@@H]1C(=O)N1CCC2(CC1)CN(c1ncnnc1Oc1ccc(F)cc1-c1cncnc1C1CC1)C2 [Example 77]	17.5%	> 40000 nM
	> 10000 nM	4.2 nM	5.6 nM	12.3 nM	11.2 nM	O=C([C@H]1NC[C@@H]2CCC[C@@H]21)N1CCC2(CC1)CN(c1ncnnc1Oc1ccc(F)cc1-c1cncnc1C1CC1)C2 [Example 82]	22.3%	29400 nM
	> 10000 nM	4.6 nM	5.6 nM	14.9 nM	30.9 nM	CCN(C(=O)c1cc(F)ccc1Oc1nncnc1N1CC2(CCN(C(=O)[C@H]3NC[C@@H]4CCC[C@@H]43)CC2)C1)C(C)C [Example 74]	7.9%	> 40000 nM
